Test results: paper PMC12396409, “Screening and hit evaluation of a microbial metabolite library against the pathogenic Plasmodium falciparum and Toxoplasma gondii parasites” (International Journal for Parasitology: Drugs and Drug …, 2025)
Where two headings read alike, the source gives them in different places. Where a SMILES comes first, the peptide text is derived from it. Bridges are numbered along the chain shown (N, C = ends). [ ]: non-standard residue; d: D form. The star is where a group is joined. X2 = CCCCCCCCCCCC(O)CC(=O)*; GABA = NCCCC(=O)O

Columns and labels:
[1] = test system: P. falciparum 3D7 parasites; assay: P. falciparum growth inhibition assay, 1-cycle (72 h treatment), SYBR DNA staining (library screen at 2 μg/mL and dose-response); assay type: cell-based, Plasmodium falciparum; conditions: for activity at 2 µg/mL: Plasmodium falciparum, 3D7
[2] = test system: P. falciparum 3D7 parasites; assay: P. falciparum growth inhibition assay, 2-cycle (120 h treatment), delayed-death screen and dose-response; assay type: cell-based, Plasmodium falciparum; conditions: for activity at 2 µg/mL: Plasmodium falciparum, 3D7
[3] = test system: T. gondii RH strain (RH-Tub-eYFP) tachyzoites; assay: microbe, parasite or virus in culture; assay type: cell-based, Toxoplasma gondii; conditions: for percent parasite growth at 2 µg/mL: Toxoplasma gondii; for percent parasite growth at 2 µg/mL / Tg_72h_%Growth_Rep1 / Tg_72h_%Growth_Rep2: 72 h
[4] = library screen at 2 μg/mL, 72 h, % growth, replicate 1
[5] = library screen at 2 μg/mL, 72 h, % growth, replicate 2
[6] = library screen at 2 μg/mL, 120 h, % growth, replicate 1
[7] = library screen at 2 μg/mL, 120 h, % growth, replicate 2
[8] = library screen at 2 μg/mL, % growth, replicate 1
[9] = library screen at 2 μg/mL, % growth, replicate 2
[10] = P. falciparum, 72 h, parasite screen 2 μg/mL, % growth, replicate 1
[11] = P. falciparum, 72 h, parasite screen 2 μg/mL, % growth, replicate 2
[12] = P. falciparum, 120 h, parasite screen 2 μg/mL, % growth, replicate 1
[13] = P. falciparum, 120 h, parasite screen 2 μg/mL, % growth, replicate 2
[14] = T. gondii, parasite screen 2 μg/mL, % growth, replicate 1
[15] = T. gondii, parasite screen 2 μg/mL, % growth, replicate 2
[16] = P. falciparum, 72 h, screen at 2 μg/mL, replicate 1
[17] = P. falciparum, 72 h, screen at 2 μg/mL, replicate 2
[18] = active against the parasite at 2 μg/mL, no anti-tumour (NS-1) or cytotoxic (fibroblast) activity at 5 μg/mL
[19] = P. falciparum, 120 h, screen at 2 μg/mL, replicate 1
[20] = P. falciparum, 120 h, screen at 2 μg/mL, replicate 2
[21] = T. gondii, screen at 2 μg/mL, replicate 1
[22] = T. gondii, screen at 2 μg/mL, replicate 2
[23] = P. falciparum 3D7, 72 h, parasite screen at 2 μg/mL, % growth, replicate 1
[24] = P. falciparum 3D7, 72 h, parasite screen at 2 μg/mL, % growth, replicate 2
[25] = P. falciparum 3D7, 120 h, parasite screen at 2 μg/mL, % growth, replicate 1
[26] = P. falciparum 3D7, 120 h, parasite screen at 2 μg/mL, % growth, replicate 2
[27] = T. gondii, parasite screen at 2 μg/mL, % growth, replicate 1
[28] = T. gondii, parasite screen at 2 μg/mL, % growth, replicate 2

## CC(/C=C/[C@@]1(C)[C@H](C)CCC(=O)[C@@H]1C)=C\Cc1c(O)c(Cl)c(C)c(C=O)c1O [Ascochlorin]
[1]; library screen at 2 μg/mL, 72 h, % growth, replicate 1, read-out: Pf_72h_%Growth_Rep1
  activity at 2 µg/mL: 79.8%
[1]; library screen at 2 μg/mL, 72 h, % growth, replicate 2, read-out: Pf_72h_%Growth_Rep2
  activity at 2 µg/mL: 84.8%
[2]; library screen at 2 μg/mL, 120 h, % growth, replicate 1, read-out: Pf_120h_%Growth_Rep1
  activity at 2 µg/mL: 141%
[2]; library screen at 2 μg/mL, 120 h, % growth, replicate 2, read-out: Pf_120h_%Growth_Rep2
  activity at 2 µg/mL: 86.1%
[3]; library screen at 2 μg/mL, % growth, replicate 1, read-out: Tg_72h_%Growth_Rep1
  percent parasite growth at 2 µg/mL: 69.4%
[3]; library screen at 2 μg/mL, % growth, replicate 2, read-out: Tg_72h_%Growth_Rep2
  percent parasite growth at 2 µg/mL: 87.7%

## C=C(NC(=O)C(=C)NC(=O)c1ccc2c(n1)-c1coc(n1)C(=C)NC(=O)C(=C)NC(=O)c1nc(oc1C)C(=C)NC(=O)C(C(C)(C)O)NC(=O)C(=C)NC(=O)c1coc(n1)/C(=C/C)NC(=O)[C@H]([C@@H](C)O)NC(=O)c1csc-2n1)C(N)=O (some centres unmarked) [Geninthiocin]
[1]; [4]
  Pf_72h_%Growth_Rep1: 87.80%
[1]; [5]
  Pf_72h_%Growth_Rep2: 33.98%
[2]; [6]
  Pf_120h_%Growth_Rep1: 87.82%
[2]; [7]
  Pf_120h_%Growth_Rep2: 106.01%
[3]; [8]
  Tg_72h_%Growth_Rep1: 124.28%
[3]; [9]
  Tg_72h_%Growth_Rep2: 90.80%

## CC(=O)O[C@H]1CCC2(C)C3=C(CCC2C1(C)C)[C@@]1(C)CC[C@@H](C(C)CCC=C(C)C)[C@]1(C)CC3 (some centres unmarked) [Euphol acetate]
[1]; [4]
  Pf_72h_%Growth_Rep1: 66.07%
[1]; [5]
  Pf_72h_%Growth_Rep2: 91.20%
[2]; [6]
  Pf_120h_%Growth_Rep1: 60.77%
[2]; [7]
  Pf_120h_%Growth_Rep2: 92.36%
[3]; [8]
  Tg_72h_%Growth_Rep1: 114.80%
[3]; [9]
  Tg_72h_%Growth_Rep2: 105.35%

## CN(C)[C@@H]1C(=O)C(C(N)=O)=C(O)[C@@]2(O)C(=O)C3=C(O)c4c(O)cccc4C[C@H]3C[C@@H]12.Cl [Sancycline hydrochloride]
[1]; [10]
  Pf_72h_%Growth_Rep1: 1.26%
[1]; [11]
  Pf_72h_%Growth_Rep2: 7.80%
[2]; [12]
  Pf_120h_%Growth_Rep1: 6.81%
[2]; [13]
  Pf_120h_%Growth_Rep2: 7.98%
[3]; [14]
  Tg_72h_%Growth_Rep1: 58.51%
[3]; [15]
  Tg_72h_%Growth_Rep2: 60.28%

## C=C1[C@@H](C)[C@H]2[C@H](Cc3ccccc3)NC(=O)[C@]23[C@H](O)/C=C/[C@](C)(O)C[C@@H](C)C/C=C/[C@H]3[C@@H]1O [cytochalasin J]
[1]; [16]
  Pf_72h_%Growth_Rep1: 6.03%
[1]; [17]
  Pf_72h_%Growth_Rep2: 6.00%
[1]; [18]
  selectivity for P. falciparum in the screens: active selectively against P. falciparum and T. gondii
[2]; [19]
  Pf_120h_%Growth_Rep1: 0.52%
[2]; [20]
  Pf_120h_%Growth_Rep2: -0.13%
[3]; [21]
  Tg_72h_%Growth_Rep1: 4.83%
[3]; [22]
  Tg_72h_%Growth_Rep2: 6.80%
[3]; [18]
  selectivity for T. gondii in the screens: active selectively against P. falciparum and T. gondii

## CC(C)C[C@@H]1NC(=O)[C@@H](C(C)C)NC(=O)[C@@H](C)NC(=O)CCCNC(=O)[C@@H](Cc2c[nH]c3ccccc23)NC(=O)[C@@H](C)NC(=O)[C@@H](C(C)C)NC1=O [Unguisin B] (cyclo([GABA][dA][dV]L[dV][dA][dW]))
[1]; [16]
  Pf_72h_%Growth_Rep1: 89.12%
[1]; [17]
  Pf_72h_%Growth_Rep2: 119.76%
[2]; [19]
  Pf_120h_%Growth_Rep1: 112.33%
[2]; [20]
  Pf_120h_%Growth_Rep2: 102.07%
[3]; [21]
  Tg_72h_%Growth_Rep1: 121.22%
[3]; [22]
  Tg_72h_%Growth_Rep2: 81.61%

## CCCCCCCCCCCCCCCC(=O)C1=C(O)C(CO)OC1=O (centres unmarked) [RK-682]
[1]; [10]
  Pf_72h_%Growth_Rep1: 82.69%
[1]; [11]
  Pf_72h_%Growth_Rep2: 35.30%
[2]; [12]
  Pf_120h_%Growth_Rep1: 73.75%
[2]; [13]
  Pf_120h_%Growth_Rep2: 72.22%
[3]; [14]
  Tg_72h_%Growth_Rep1: 107.18%
[3]; [15]
  Tg_72h_%Growth_Rep2: 84.15%

## COc1cc(C)c(C(=O)O)c(OC)c1 [BIA-O1659]
[1]; [23]
  Pf_72h_%Growth_Rep1: 84.80%
[1]; [24]
  Pf_72h_%Growth_Rep2: 98.06%
[2]; [25]
  Pf_120h_%Growth_Rep1: 91.75%
[2]; [26]
  Pf_120h_%Growth_Rep2: 145.28%
[3]; [27]
  Tg_72h_%Growth_Rep1: 135.87%
[3]; [28]
  Tg_72h_%Growth_Rep2: 85.39%

## COC1=CC(=O)c2c(n(C)c3occc3c2=O)C1=O [BIA-M1955]
[1]; [23]
  Pf_72h_%Growth_Rep1: 39.08%
[1]; [24]
  Pf_72h_%Growth_Rep2: 29.78%
[2]; [25]
  Pf_120h_%Growth_Rep1: 53.96%
[2]; [26]
  Pf_120h_%Growth_Rep2: 26.88%
[3]; [27]
  Tg_72h_%Growth_Rep1: 248.99%
[3]; [28]
  Tg_72h_%Growth_Rep2: 112.97%

## Cc1c2c(c(O)c3c(O)ccc(Cl)c13)C(=O)[C@]1(O)C(O)=C(C(N)=O)C(=O)[C@@H](N(C)C)[C@@H]1C2.Cl [Anhydrochlortetracycline hydrochloride]
[1]; [4]
  Pf_72h_%Growth_Rep1: 86.52%
[1]; [5]
  Pf_72h_%Growth_Rep2: 88.12%
[2]; [6]
  Pf_120h_%Growth_Rep1: 62.00%
[2]; [7]
  Pf_120h_%Growth_Rep2: 93.26%
[3]; [8]
  Tg_72h_%Growth_Rep1: 107.44%
[3]; [9]
  Tg_72h_%Growth_Rep2: 94.77%

## CO[C@@H]1[C@@H](OC(N)=O)[C@@H](O)[C@H](Oc2ccc3c(O)c(NC(=O)c4ccc(O)c(CC=C(C)C)c4)c(=O)oc3c2C)OC1(C)C [BIA-N1306]
[1]; [23]
  Pf_72h_%Growth_Rep1: 77.54%
[1]; [24]
  Pf_72h_%Growth_Rep2: 85.29%
[2]; [25]
  Pf_120h_%Growth_Rep1: 15.07%
[2]; [26]
  Pf_120h_%Growth_Rep2: 13.28%
[3]; [27]
  Tg_72h_%Growth_Rep1: 9.17%
[3]; [28]
  Tg_72h_%Growth_Rep2: 93.65%

## CC[C@H]1OC(=O)[C@H](C)[C@@H](O[C@H]2C[C@@](C)(OC)[C@@H](O)[C@H](C)O2)[C@H](C)[C@@H](O[C@@H]2O[C@H](C)C[C@H](N(C)C)[C@H]2O)[C@](C)(O)C[C@@H](C)C(=O)[C@H](C)[C@@H](O)[C@H]1C [Erythromycin B]
[1]; [4]
  Pf_72h_%Growth_Rep1: 77.77%
[1]; [5]
  Pf_72h_%Growth_Rep2: 67.71%
[2]; [6]
  Pf_120h_%Growth_Rep1: 64.18%
[2]; [7]
  Pf_120h_%Growth_Rep2: 47.52%
[3]; [8]
  Tg_72h_%Growth_Rep1: 53.14%
[3]; [9]
  Tg_72h_%Growth_Rep2: 48.82%

## Cc1cc(O)c2c(c1)O[C@@]1(C)CC[C@H]3C(C)(C)CCC[C@]34CO[C@@H]2[C@H]41 [Siccanin]
[1]; P. falciparum, 72 h, parasite screen 2 μg/mL, % growth, replicate 1, read-out: Pf_72h_%Growth_Rep1
  activity at 2 µg/mL: 76%
[1]; P. falciparum, 72 h, parasite screen 2 μg/mL, % growth, replicate 2, read-out: Pf_72h_%Growth_Rep2
  activity at 2 µg/mL: 49.5%
[2]; P. falciparum, 120 h, parasite screen 2 μg/mL, % growth, replicate 1, read-out: Pf_120h_%Growth_Rep1
  activity at 2 µg/mL: 73%
[2]; P. falciparum, 120 h, parasite screen 2 μg/mL, % growth, replicate 2, read-out: Pf_120h_%Growth_Rep2
  activity at 2 µg/mL: 114%
[3]; T. gondii, parasite screen 2 μg/mL, % growth, replicate 1, read-out: Tg_72h_%Growth_Rep1
  percent parasite growth at 2 µg/mL: 99.3%
[3]; T. gondii, parasite screen 2 μg/mL, % growth, replicate 2, read-out: Tg_72h_%Growth_Rep2
  percent parasite growth at 2 µg/mL: 83.6%

## CCCC[C@H](O)[C@@H]1CC(OC)=CC(=O)O1 [BIA-P1067]
[1]; [23]
  Pf_72h_%Growth_Rep1: 81.23%
[1]; [24]
  Pf_72h_%Growth_Rep2: 52.23%
[2]; [25]
  Pf_120h_%Growth_Rep1: 77.65%
[2]; [26]
  Pf_120h_%Growth_Rep2: 111.54%
[3]; [27]
  Tg_72h_%Growth_Rep1: 91.14%
[3]; [28]
  Tg_72h_%Growth_Rep2: 92.83%

## CCCCCCCCCCCC(O)CC(=O)NC(CC(C)C)C(=O)NC(CCC(=O)O)C(=O)NC1C(=O)NC(C(C)CC)C(=O)NC(CC(C)C)C(=O)NC(CO)C(=O)NC(CC(C)C)C(=O)NC(CC(C)C)C(=O)NC(CO)C(=O)NC(C(C)C)C(=O)OC1C (centres unmarked) [BIA-O1430] (X2-LETILSLLSV; ester 3-C; configuration not given here)
[1]; [23]
  Pf_72h_%Growth_Rep1: 78.47%
[1]; [24]
  Pf_72h_%Growth_Rep2: 76.87%
[2]; [25]
  Pf_120h_%Growth_Rep1: 85.46%
[2]; [26]
  Pf_120h_%Growth_Rep2: 72.71%
[3]; [27]
  Tg_72h_%Growth_Rep1: 121.77%
[3]; [28]
  Tg_72h_%Growth_Rep2: 92.49%

## C/C=C/C=C/[C@H]1Cc2cc(O)cc(O)c2O1 [Asperfuran]
[1]; [4]
  Pf_72h_%Growth_Rep1: 81.82%
[1]; [5]
  Pf_72h_%Growth_Rep2: 86.77%
[2]; [6]
  Pf_120h_%Growth_Rep1: 70.89%
[2]; [7]
  Pf_120h_%Growth_Rep2: 94.19%
[3]; [8]
  Tg_72h_%Growth_Rep1: 65.57%
[3]; [9]
  Tg_72h_%Growth_Rep2: 59.68%
